From ChEMBL document CHEMBL5729007, “Triaryl compounds for treatment of PD-L1 diseases” (2022) come the findings set out here.

Programmed cell death 1 ligand 1, sequence (Q9NZQ7 whole entry): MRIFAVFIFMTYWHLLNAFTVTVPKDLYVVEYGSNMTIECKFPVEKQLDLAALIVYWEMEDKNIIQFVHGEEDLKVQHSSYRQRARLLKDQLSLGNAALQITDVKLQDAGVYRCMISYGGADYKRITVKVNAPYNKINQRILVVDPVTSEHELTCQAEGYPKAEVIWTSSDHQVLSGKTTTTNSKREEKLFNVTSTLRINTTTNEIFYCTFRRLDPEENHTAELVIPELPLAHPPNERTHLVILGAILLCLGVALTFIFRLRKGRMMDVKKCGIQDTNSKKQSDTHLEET

The experiment has as its target Programmed cell death 1 ligand 1 (Homo sapiens, UniProt Q9NZQ7). Nature of the experiment: Enzyme-Linked Immunosorbent Assay—ELISA: 96 Well plates were coated with […] of human PD-L1 (obtained from R&D) in PBS overnight at 4° C. The wells were then blocked with 2% BSA in PBS (W/V) with 0.05% TWEEN-20 for 1 hour at 37° C. The plates were washed 3 times with PBS/0.05% TWEEN-20 and the compounds were serial diluted (1:5) in dilution medium and added to the ELISA plates. Human PD-1 and biotin 0.31 μg/mL (ACRO Biosystems) were added and incubated for 1 hour at 37° C. then washed 3 times with PBS/0.05% TWEEN-20. A second block was performed with 2% BSA in PBS (W/V)/0.05% TWEEN-20 for 10 min at 37° C. and the plates were washed 3 times with PBS/0.05% TWEEN-20. Streptavidin-HRP was added for 1 hour at 37° C. then the plates were washed 3 times with PBS/0.05% TWEEN-20. TMB substrate was added and reacted for 20 min at 37° C. A stop solution (2 N aqueous H2SO4) was added. The absorbance was read at 450 nm using a micro-plate spectrophotometer. A general note: ELISA stands for enzyme-linked immunosorbent assay.
On to `COc1cc(-c2cccc(-c3cccc(Nc4nccc5nccnc45)c3C)c2Cl)cc(F)c1CN[C@@H]1CCOC[C@@H]1O`, for which the IC50 (commonly the concentration that inhibits the measured activity by half) was less than 0.01 µM.

As for `COc1cc(-c2cccc(-c3cccc(NC(=O)c4cn(C)c(=O)n(C)c4=O)c3Cl)c2Cl)cc(F)c1CN[C@@H]1CCOC[C@@H]1O`, the IC50 is less than 0.01 µM.

In the case of `COc1cc(-c2cccc(-c3cccc(NC(=O)c4cn(C)c(=O)n(C)c4=O)c3C)c2C)cc(F)c1CN`, the IC50 was less than 0.01 µM. Next, `COc1cc(-c2cccc(-c3cccc(NC(=O)c4cnc(C(N)=O)cn4)c3C)c2C)cc(F)c1CN`: less than 0.01 µM. Next, `COc1cc(-c2cccc(-c3cccc(NC(=O)c4cn(C)c(=O)n(C)c4=O)c3Cl)c2Cl)cc(F)c1CN[C@@H]1CNC(=O)C1`: less than 0.01 µM. Next, `COc1cc(-c2cccc(-c3cccc(NC(=O)c4cn(C)c(=O)n(C)c4=O)c3C)c2C)cc(F)c1CN(C)CCO`: less than 0.01 µM. As for `COc1cc(-c2cccc(-c3cccc(NC(=O)c4ccc(C(N)=O)cn4)c3C)c2C)cc(F)c1CN`, the IC50 was less than 0.01 µM. The figure for `COc1cc(-c2cccc(-c3cccc(NC(=O)c4cncn(C)c4=O)c3C)c2Cl)cc(F)c1CN[C@@H]1CNC(=O)C1` is less than 0.01 µM; for `COc1cc(-c2cccc(-c3cccc(NC(=O)c4ccc(OCC(=O)O)cn4)c3C)c2C)cc(F)c1CN` it is less than 0.01 µM. For the compound `COc1cc(-c2cccc(-c3cccc(NC(=O)c4cn(C)c(=O)n(C)c4=O)c3F)c2Cl)cc(F)c1CNCC1CCC(=O)N1` (stereo not given), the concentration for half-maximal inhibition (IC50) is less than 0.01 µM.
